Experimental data published in patent publication US20240197729A1, “ALK-5 Inhibitors and Uses Thereof” (Sumitomo Pharma Oncology, Inc., priority 2021, published 2024).
Where two headings read alike, the source gives them in different places.

How the values were obtained:
[1] = test system: TGF-β1-mediated αSMA expression; conditions: human, 73 h
Protocol: (§4) To test the ability of selected compounds to inhibit the TGF-β1-dependent transition of fibroblasts to myofibroblasts in a relevant disease model of IPF, an FMT assay was performed using lung fibroblasts from IPF patients. In this assay, the transition of fibroblasts to myofibroblasts is determined by the expression of the biomarker alpha smooth muscle actin (α-SMA).
(§5) Primary human bronchial fibroblasts derived from IPF patients were seeded on day zero and the media was refreshed on day two. On day five, selected compounds or controls were added at an eight-point concentration response curve starting at 10 μM (semi-log dilutions). Each drug concentration condition was evaluated in biological duplicates. […] Seventy-two hours following TGF-beta addition, the cells were fixed with formaldehyde. High content imaging evaluating cell number using the nuclear stain DAPI as well as the expression of a-SMA was performed. The following controls were run alongside the selected compounds: vactosertib and the approved IPF drug nintedanib (at an eight-point, semi-log curve with 10 μM starting concentration). As a negative control 0.1% DMSO was also used, matching the DMSO concentration in treated wells. The following calculations were used to determine cell number as well as percent inhibition (PIN) of alpha SMA expression:
(§6) • Segmentation and quantification of αSMA immunoreactivity by an HCA algorithm, with density×area (D×A) output • Data normalization of raw αSMA (D×A) to percentage inhibition (PIN) values, on a plate-to-plate basis
(§7) • DAPI fluorescence applied for HCA-based quantification of the number of imaged cells, on a plate-to-plate basis
(§8) [formula] • μn is the average numbers of nuclei of the vehicle control (TGF-β1+0.1% DMSO) • Xi is the compound number of nuclei

[2] = test system: TGF-β1-mediated αSMA expression; assay: Fibroblast to myofibroblast transformation (FMT) assay; conditions: for IC50: Homo sapiens, Fibroblast
Protocol: as §4, §5, §6, §7, §8

[3] = test system: phospho-SMAD-2 (Ser465/Ser467); assay: A549 xenograft assay, p-SMAD2; type: in vivo, mice; conditions: 75 mg/kg per oral gavage, tumors 4 h after dosing
Source text: (§1) To test compounds for inhibition of in vivo on-target activity (ALK5/TGF-bR1 inhibition) as well as potential Janus Kinase (JAK) signaling off-target activity, the A549 murine xenograft model was utilized. An ALK5 inhibitor (e.g., vactosertib) is expected to reduce the amount of the TGF-beta signaling molecule phospho-SMAD-2 (pSMAD2) in the A549 xenograft cells. The TGF-beta-mediated phosphorylation of SMAD2 in A549 cells takes place at amino acid residue four hundred and sixty-five and four hundred and sixty-seven (both are serine residues). A JAK inhibitor (e.g., ruxolitinib) is expected to reduce the phosphorylation of signal transducer and activator of transcription (STAT) proteins such as STAT3 at amino acid residue 705 (tyrosine).
(§2) At eight weeks of age, female athymic nude mice (purchased from Charles River) were injected with approximately 3.5 million A549 cells (ATCC, CCL-185). Specifically, cells were harvested and resuspended in plain RPMI media (no phenol red added) and Matrigel (Corning 356237) at a one to one ratio, and two hundred-microliters were injected into the right hind flank of each mouse. Tumors were measured every three days by caliper and as tumors reached an average of seventy-eighty millimeters cubed, mice were randomized in groups of three. All compounds were resuspended in 1-methyl-2-pyrrolidinone (Sigma 494496) (10%) plus 20% Solutol (Sigma 42966) in water (90%). Vactosertib and ruxolitinib were included as controls as ALK5 signaling inhibitor and JAK signaling inhibitor, respectively. Both controls were given at seventy-five milligrams per kilogram to three mice. The drug suspensions were sonicated for fifteen minutes to generate a fine particle suspension before being given to the mice. Mice were dosed (per oral gavage) with drug at one hundred, seventy-five, fifty, or ten milligrams per kilogram, with three mice per group. A vehicle control group with three mice was used to establish the baseline level of phospho-SMAD-2 in the tumor xenograft.
(§3) Four hours after drug administration, tumors were harvested, snap frozen and stored at negative eighty degrees Celsius until further processing. The phospho-SMAD-2 levels were determined using the Bio-Plex Pro™ Phospho-Smad2 (Ser465/Ser467) Set (BioRad 171V50019M). The phospho STAT3 levels were determined using the bead/antibody set from the MILLIPLEXMAP STAT Cell Signaling Magnetic Bead 5-Plex Kit (Millipore 48-610MAG). Both phospho SMAD-2 levels and phospho STAT3 levels were normalized to ß-Tubulin (MILLIPLEX MAP ß-Tubulin Total Magnetic Bead MAPmate™, Millipore 46-713MAG) or GAPDH (MILLIPLEX MAP GAPDH Total Magnetic Bead MAPmate™, Millipore 46-667MAG) levels from each sample. All analytes were analyzed in a multiplex fashion with the Bio-Plex Pro Cell Signaling Reagent Kit (BioRad 171304006M). Briefly, frozen tumor (fifteen to thirty milligrams) was lysed in 100 μl lysis buffer, processed in bead mill tube, and centrifuged. The resulting lysate was used at 1:50 dilution for the assay according to the manufacturer's instructions. Bead suspension was analyzed using the Luminex system (MAGPIX).

p-STAT3 (Tyr 705) = assay: A549 xenograft assay, p-STAT3; type: in vivo, mice
Source text: as §1, §2, §3

JAK signaling = assay: JAK selectivity assay, HEK blue IL-12 reporter; type: cell-based; conditions: 12.5 ng/ml IL-12, 24 h
Protocol: The cells were purchased from Invivogen (Catalog Nr: hkb-il12) and maintained according to vendor instructions. On the day of the experiment, cells were harvested by repeated tapping of the flask to shake loose the cells attached to the bottom of the flask. Then, cells were harvested, washed and resuspended in DMEM media supplemented with 10% fetal calf serum. 30 Microliters of cell suspension was seeded into a 384-well tissue culture-coated plate containing approximately 10,000 total cells. […] Using the ECHO “Dose Response” software, the test compound was added in duplicate wells with a 3-fold dilution curve. DMSO was back-filled to normalize the DMSO across all wells. […] After 30 minutes of incubation at room temperature, the optical density was measured at 620 nanometer using the Perkin Elmer Envision plate reader. A color change can be detected at this wavelength when secreted alkaline phosphatase, which is triggered by IL-12 signaling, is present in the supernatant. […]

[4] = test system: BMP-6/ALK2/Hepcidin pathway; assay: ALK2 off-target assay, hepcidin mRNA in HepG2 hepatocytes; type: cell-based, human; conditions: HepG2, 40 ng/ml BMP-6, 3 h; read-out: IC50, hepcidin mRNA expression
Protocol: In this study, LDN214117 (an ALK2 inhibitor available from Selleck Chemicals S7627) was included as a positive control, and vactosertib (an ALK5 inhibitor available from MedChem Express HY-19928) was included as a negative control.
HepG2 human hepatocytes (ATCC HB-8065) were seeded in EMEM (ATCC30-2003)+10% FBS in 96-well plate and allowed to grow overnight at 5% CO2 at 37° C. The next day, cells were pre-treated with selected compounds (Compound 01, 04 or 05) or one of the control compounds at various concentrations, or with vehicle (DMSO) for one hour. Cells were then stimulated with recombinant human BMP-6 (R&D Systems 507-BP-020) at a final concentration of 40 ng/ml, in the presence of test compound or DMSO for three hours. A no-BMP-6 stimulation condition was included for baseline hepcidin level measurement.
Hepcidin mRNA expression was measured by real-time RT-PCR with Cells-to-CT 1-Step TaqMan Kit (ThermoFisher A25603) following manufacturer's instructions. GAPDH levels were measured, and served as a normalization control. Hepcidin primer: TaqMan HAMP-FAM/MGB 20×(ThermoFisher 4331182); GAPDH primer: TaqMan GAPDH-VIC/MGB 20×(ThermoFisher 4326317E). Delta-delta Ct method was used to obtain relative Hepcidin expression.
The selected compounds and control compounds LDN214117 and vactosertib were tested at drug concentrations of 20 micromolar to 1.22 nanomolar at 4-fold serial dilution. All wells contained the same DMSO concentrations. IC50 values were calculated using nonlinear regression model with GraphPad Prism software. The results of the ALK-2 off-target assay are reported in Table 3B, where “++” indicates 0.1 μM<IC50≤1 μM and “+++” indicates […].

COC(=O)c1ccc2c(c1)NC(=O)/C2=C(\Nc1ccc(N(C)C(=O)CN2CCN(C)CC2)cc1)c1ccccc1 [Nintedanib, nintedanib, reference compound]
Potentially toxic concentration [1]: 5.0 | IC50 ([2]; read-out: Average IC50 (nM), average of donors IPF03, IPF06, IPF08): 833 nM | IC50 ([2]; read-out: IC50 αSMA, donor IPF03): 600 nM | IC50 ([2]; read-out: IC50 αSMA, donor IPF06): 1500 nM | IC50 ([2]; read-out: IC50 αSMA, donor IPF08): 400 nM | IC50 ([2]; read-out: pIC50 αSMA, donor IPF03 (converted)): 631 nM | IC50 ([2]; read-out: pIC50 αSMA, donor IPF06 (converted)): 1580 nM | IC50 ([2]; read-out: pIC50 αSMA, donor IPF08 (converted)): 398 nM | Max PIN (%) ([2]; donor IPF03): 90% | Max PIN (%) ([2]; donor IPF06): 104% | Max PIN (%) ([2]; donor IPF08): 94%

N#CC[C@H](C1CCCC1)n1cc(-c2ncnc3[nH]ccc23)cn1 [Ruxolitinib, ruxolitinib, reference compound]
Average % p-SMAD2 (Ser 465/467) of vehicle [3]: 120% | Average % p-STAT3 (Tyr 705) of vehicle (p-STAT3 (Tyr 705); 75 mg/kg per oral gavage, tumors 4 h after dosing): 10% | inhibition of the phosphorylation of STAT3 in tumor samples (p-STAT3 (Tyr 705); 75 milligrams per kilogram): 90% | IC50 (JAK signaling): 31 nM

COc1cc(-c2cc(-c3ccc(N4CCNCC4)cc3)cnc2C)cc(OC)c1OC [LDN214117, reference compound]
IC50 [4]: 100 to 1000 nM
